Assay results from patent US9346798B2, “Dihydrobenzoxazine and tetrahydroquinoxaline sodium channel inhibitors” (AMGEN INC., priority 2012, dated 2016).

Experiments:
Type in all cases: cell-based
Nav 1.7 [1] = biological target: T1, Nav 1.7 (Homo sapiens (Human), UniProt Q15858); assay: Nav 1.7 in vitro assay, IonWorks Quattro (IWQ) population patch-clamp; details: HEK 293 cells stably transfected with Nav 1.7; for IC50: 26th pulse to -20 mV; for inhibition at 4.9 µM: HEK293, values marked *, read-out: Nav 1.7 IWQ percent inhibition at 4.9 μM
T1 sequence (Q15858 whole entry): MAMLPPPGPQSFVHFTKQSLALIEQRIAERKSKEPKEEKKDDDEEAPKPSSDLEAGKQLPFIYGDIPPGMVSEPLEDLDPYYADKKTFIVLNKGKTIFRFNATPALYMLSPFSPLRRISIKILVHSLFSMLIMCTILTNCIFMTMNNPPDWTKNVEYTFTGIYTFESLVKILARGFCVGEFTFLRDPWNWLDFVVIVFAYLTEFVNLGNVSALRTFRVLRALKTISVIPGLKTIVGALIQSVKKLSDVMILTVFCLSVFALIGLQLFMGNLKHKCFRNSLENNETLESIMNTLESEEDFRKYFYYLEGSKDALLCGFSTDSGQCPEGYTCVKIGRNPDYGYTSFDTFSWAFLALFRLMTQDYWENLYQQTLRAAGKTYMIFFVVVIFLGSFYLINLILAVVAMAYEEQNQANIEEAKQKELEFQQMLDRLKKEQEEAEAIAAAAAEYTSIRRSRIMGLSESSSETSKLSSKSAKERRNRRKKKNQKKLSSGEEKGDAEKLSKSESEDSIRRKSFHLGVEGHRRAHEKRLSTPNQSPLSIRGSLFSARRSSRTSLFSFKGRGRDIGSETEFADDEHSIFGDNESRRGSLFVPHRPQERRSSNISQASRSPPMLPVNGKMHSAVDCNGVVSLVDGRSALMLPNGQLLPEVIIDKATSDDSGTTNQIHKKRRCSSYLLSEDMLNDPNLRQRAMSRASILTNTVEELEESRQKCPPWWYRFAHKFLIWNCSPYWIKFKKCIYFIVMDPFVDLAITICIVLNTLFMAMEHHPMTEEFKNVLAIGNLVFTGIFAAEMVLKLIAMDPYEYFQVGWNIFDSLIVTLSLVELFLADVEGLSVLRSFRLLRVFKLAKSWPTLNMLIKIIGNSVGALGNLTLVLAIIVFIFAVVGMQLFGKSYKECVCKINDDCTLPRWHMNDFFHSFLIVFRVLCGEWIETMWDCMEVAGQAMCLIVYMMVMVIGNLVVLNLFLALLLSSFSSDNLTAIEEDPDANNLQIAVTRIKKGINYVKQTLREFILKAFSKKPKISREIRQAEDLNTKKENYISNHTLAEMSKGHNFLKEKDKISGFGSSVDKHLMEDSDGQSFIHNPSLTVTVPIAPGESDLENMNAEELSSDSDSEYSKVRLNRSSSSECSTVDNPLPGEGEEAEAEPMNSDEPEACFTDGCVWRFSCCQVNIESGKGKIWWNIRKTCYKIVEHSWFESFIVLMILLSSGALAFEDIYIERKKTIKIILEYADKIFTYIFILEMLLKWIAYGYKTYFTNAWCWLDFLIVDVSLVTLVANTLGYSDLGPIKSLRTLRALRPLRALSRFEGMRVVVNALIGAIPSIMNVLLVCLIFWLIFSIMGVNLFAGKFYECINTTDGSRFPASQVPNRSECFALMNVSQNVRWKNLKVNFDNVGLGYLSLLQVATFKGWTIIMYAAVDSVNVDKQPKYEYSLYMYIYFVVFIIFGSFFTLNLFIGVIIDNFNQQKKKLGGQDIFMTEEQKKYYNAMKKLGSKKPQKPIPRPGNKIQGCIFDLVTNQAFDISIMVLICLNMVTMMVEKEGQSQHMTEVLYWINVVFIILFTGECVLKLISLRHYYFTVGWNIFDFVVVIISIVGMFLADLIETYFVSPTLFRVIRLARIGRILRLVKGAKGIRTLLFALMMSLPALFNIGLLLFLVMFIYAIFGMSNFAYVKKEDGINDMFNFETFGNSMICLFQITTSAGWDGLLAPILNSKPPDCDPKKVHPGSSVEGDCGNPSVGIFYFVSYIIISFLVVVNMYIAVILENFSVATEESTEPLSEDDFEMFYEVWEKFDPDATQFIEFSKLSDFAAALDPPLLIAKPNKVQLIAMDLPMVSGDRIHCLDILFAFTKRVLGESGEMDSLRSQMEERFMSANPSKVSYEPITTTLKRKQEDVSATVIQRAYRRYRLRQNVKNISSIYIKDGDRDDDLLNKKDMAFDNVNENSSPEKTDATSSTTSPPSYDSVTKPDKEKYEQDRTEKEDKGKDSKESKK
Procedure: (§1) Nav 1.7 and Nav 1.5 In Vitro Assays
(§2) HEK 293 cells stably transfected with either Nav 1.7 or with Nav 1.5 were recorded in population patch-clamp mode with the IonWorks® Quattro automated electrophysiology system in accordance with the manufacturer's specifications (Molecular Devices, LLC, Sunnyvale, Calif.). Sodium channel currents were measured in response to a train of depolarizations that induced successively greater inactivation.
(§3) Cells were held at −110 mV for three seconds (Nav 1.7) or half a second (Nav 1.5) from a holding voltage of −15 mV, then put through a series of 26 pulses of 150 msec duration to −20 mV at a frequency of 5 Hz. Cells were then left unclamped for a period of 3 to 8 minutes while a single concentration of test compound was added. Cells were then reclamped and put through the same voltage protocol. Current at the end of the 26th pulse to −20 mV was subtracted from the peak current evoked by the 26th pulse to −20 mV to correct for leak current. Percent block was calculated for each concentration in duplicate, and IC50 curves were fitted to percent block as a function of concentration.

Nav 1.7 [2] = biological target: T1, Nav 1.7; assay: Nav 1.7 in vitro PX assay, PatchXpress whole cell voltage clamp; details: HEK 293 cells stably transfected with human Nav1.7; for IC50: partially inactivated state (20 to 50% inactivation)
Procedure: Nav 1.7 In Vitro PX Assay
HEK 293 cells stably transfected with human Nav1.7 were recorded in whole cell voltage clamp mode with the PatchXpress automated electrophysiology system (Molecular Devices, LLC, Sunnyvale, Calif.). Compound effects were measured on a partially inactivated state of the sodium channel. Cells were clamped to a holding potential yielding 20 to 50% inactivation. To elicit sodium current, channels were activated by pulsing to −10 mV for 20 msec. This voltage protocol was repeated at a rate of 0.1 Hz throughout the experiment. A single concentration of test compound was applied to cells for a duration of 3 minutes. Peak sodium current was measured at the end of the compound addition period to determine percent inhibition. Three to five cells were tested per concentration, and IC50 curves were fitted to percent inhibition as a function of concentration.

Nav 1.5 = Nav 1.5 (Homo sapiens (Human), UniProt Q14524); assay: Nav 1.5 in vitro assay, IonWorks Quattro (IWQ) population patch-clamp; details: HEK 293 cells stably transfected with Nav 1.5; 26th pulse to -20 mV
Chain of Nav 1.5 (Q14524 whole entry): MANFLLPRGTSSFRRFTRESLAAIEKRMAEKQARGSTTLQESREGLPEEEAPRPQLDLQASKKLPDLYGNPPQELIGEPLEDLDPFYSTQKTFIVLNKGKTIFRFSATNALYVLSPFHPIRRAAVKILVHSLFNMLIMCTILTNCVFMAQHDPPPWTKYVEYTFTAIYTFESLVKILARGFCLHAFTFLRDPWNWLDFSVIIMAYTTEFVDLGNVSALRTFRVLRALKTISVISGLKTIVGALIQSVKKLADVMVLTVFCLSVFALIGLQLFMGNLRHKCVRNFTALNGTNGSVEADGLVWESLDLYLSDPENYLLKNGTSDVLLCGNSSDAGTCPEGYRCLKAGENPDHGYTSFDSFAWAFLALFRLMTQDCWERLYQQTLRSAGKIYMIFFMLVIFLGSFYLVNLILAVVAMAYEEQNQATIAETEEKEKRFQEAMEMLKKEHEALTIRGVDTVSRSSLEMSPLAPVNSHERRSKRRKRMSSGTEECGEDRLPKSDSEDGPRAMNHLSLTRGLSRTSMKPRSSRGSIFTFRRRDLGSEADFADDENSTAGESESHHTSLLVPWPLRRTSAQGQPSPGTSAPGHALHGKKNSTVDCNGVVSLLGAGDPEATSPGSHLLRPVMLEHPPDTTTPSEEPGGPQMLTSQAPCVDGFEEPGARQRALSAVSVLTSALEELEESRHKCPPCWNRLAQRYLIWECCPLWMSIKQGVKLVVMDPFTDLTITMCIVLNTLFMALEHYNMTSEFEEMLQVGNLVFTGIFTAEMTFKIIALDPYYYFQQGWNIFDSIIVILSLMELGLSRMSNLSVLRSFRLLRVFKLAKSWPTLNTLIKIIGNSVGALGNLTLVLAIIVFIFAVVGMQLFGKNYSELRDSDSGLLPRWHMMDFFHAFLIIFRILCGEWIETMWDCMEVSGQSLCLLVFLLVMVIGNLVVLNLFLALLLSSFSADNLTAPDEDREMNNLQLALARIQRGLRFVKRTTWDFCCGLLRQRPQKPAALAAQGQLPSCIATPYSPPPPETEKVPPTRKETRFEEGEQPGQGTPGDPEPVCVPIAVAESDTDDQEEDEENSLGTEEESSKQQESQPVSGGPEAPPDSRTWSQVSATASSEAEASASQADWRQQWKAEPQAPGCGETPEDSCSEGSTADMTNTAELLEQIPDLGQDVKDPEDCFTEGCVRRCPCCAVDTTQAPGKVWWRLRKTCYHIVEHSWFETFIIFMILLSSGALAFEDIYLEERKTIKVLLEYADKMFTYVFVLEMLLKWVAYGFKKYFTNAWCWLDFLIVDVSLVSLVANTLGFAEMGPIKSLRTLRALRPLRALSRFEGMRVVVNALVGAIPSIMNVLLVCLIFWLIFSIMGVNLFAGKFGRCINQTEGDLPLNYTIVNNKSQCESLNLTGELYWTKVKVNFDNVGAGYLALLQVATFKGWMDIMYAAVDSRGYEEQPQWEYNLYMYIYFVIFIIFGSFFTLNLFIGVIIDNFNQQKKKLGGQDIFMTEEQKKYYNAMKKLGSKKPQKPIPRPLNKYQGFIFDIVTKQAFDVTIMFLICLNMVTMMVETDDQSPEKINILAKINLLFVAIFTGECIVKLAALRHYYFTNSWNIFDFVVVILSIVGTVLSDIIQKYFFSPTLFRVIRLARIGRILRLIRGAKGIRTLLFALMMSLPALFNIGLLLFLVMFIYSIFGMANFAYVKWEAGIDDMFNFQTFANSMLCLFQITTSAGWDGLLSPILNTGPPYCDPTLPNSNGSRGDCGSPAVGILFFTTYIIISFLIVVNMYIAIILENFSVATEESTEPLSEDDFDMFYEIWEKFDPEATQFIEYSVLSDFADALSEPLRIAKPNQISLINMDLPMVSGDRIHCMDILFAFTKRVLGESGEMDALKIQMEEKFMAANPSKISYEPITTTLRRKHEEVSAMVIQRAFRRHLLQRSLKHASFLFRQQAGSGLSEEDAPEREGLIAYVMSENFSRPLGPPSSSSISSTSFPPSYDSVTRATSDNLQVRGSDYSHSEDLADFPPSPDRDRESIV
Procedure: as §1, §2, §3

Row | SMILES | IC50 (Nav 1.7 [1]) [µM] | IC50 (Nav 1.7 [2]) [µM] | IC50 (Nav 1.5) [µM] | inhibition at 4.9 µM (Nav 1.7 [1]) [%] | inhibition at 4.9 µM (Nav 1.7 [2]; HEK293, values marked *, 4.9 μM, read-out: Nav 1.7 PX percent inhibition at 4.9 μM) [%]
1 | O=S(=O)(Nc1ncns1)c1ccc2c(c1)OCCN2c1ccc(C(F)(F)F)cc1Br [Example 1, 4-(2-Bromo-4-(Trifluoromethyl)Phenyl)-N-(1,2,4-Thiadiazol-5-Yl)-3,4-Dihydro-2H-Benzo[B][1,4]Oxazine-7-Sulfonamide] | 0.0113 | 0.0589 | > 10 |  | 
2 | O=S(=O)(Nc1nccs1)c1ccc2c(c1)OCCN2c1ccc(Cl)c(F)c1 [Example 155, 4-(4-Chloro-3-Fluorophenyl)-N-(Thiazol-2-Yl)-3,4-Dihydro-2H-Benzo[B][1,4]Oxazine-7-Sulfonamide 2,2,2-Trifluoroacetate] | 2.37 | 12.6 | > 10 |  | 
3 | COc1cncc(N2CCOc3cc(S(=O)(=O)Nc4nccs4)ccc32)c1 [Example 131, 4-(5-Methoxypyridin-3-yl)-N-(thiazol-2-yl)-3,4-dihydro-2H-benzo[b][1,4]oxazine-7-sulfonamide] | 1.31 | 23.3 | > 10 |  | 
4 | Cc1onc(-c2ccccc2)c1CN1CCOc2cc(S(=O)(=O)Nc3nccs3)ccc21 [Example 221, 4-((5-Methyl-3-Phenylisoxazol-4-Yl)Methyl)-N-(Thiazol-2-Yl)-3,4-Dihydro-2H-Benzo[B][1,4]Oxazine-7-Sulfonamide] | 0.564 | 3.03 | > 10 |  | 
5 | Cc1ccc2cnccc2c1N1CCOc2cc(S(=O)(=O)Nc3nccs3)ccc21 [Example 73, 4-(6-Methylisoquinolin-5-Yl)-N-(Thiazol-2-Yl)-3,4-Dihydro-2H-Benzo[B][1,4]Oxazine-7-Sulfonamide 2,2,2-Trifluoroacetate] | 7.58 |  | > 10 |  | 
6 | CCN(CC)C(=O)CN1CCOc2cc(S(=O)(=O)Nc3nccs3)ccc21 [Example 228, N,N-Diethyl-2-(7-(N-(Thiazol-2-Yl)Sulfamoyl)-2H-Benzo[B][1,4]Oxazin-4(3 H)-Yl)Acetamide] |  |  | > 10 | 20 | 
7 | N#Cc1cncc(N2CCOc3cc(S(=O)(=O)Nc4nccs4)ccc32)c1 [Example 117, 4-(5-Cyanopyridin-3-yl)-N-(thiazol-2-yl)-3,4-dihydro-2H-benzo[b][1,4]oxazine-7-sulfonamide] | 2.14 |  | > 10 |  | 
8 | Cn1ccc(NS(=O)(=O)c2ccc3c(c2)OCCN3c2ccc(C(F)(F)F)cc2Cl)n1 [Example 15, 4-(2-Chloro-4-(Trifluoromethyl)Phenyl)-N-(1-Methyl-1H-Pyrazol-3-Yl)-3,4-Dihydro-2H-Benzo[B][1,4]Oxazine-7-Sulfonamide] | 6.11 |  | > 10 |  | 
9 | COc1ccc(N2CCOc3cc(S(=O)(=O)Nc4nccs4)ccc32)cc1OC [Example 119, 4-(3,4-Dimethoxyphenyl)-N-(thiazol-2-yl)-3,4-dihydro-2H-benzo[b][1,4]oxazine-7-sulfonamide] | 2.53 |  | > 10 |  | 
10 | O=S(=O)(Nc1nccs1)c1ccc2c(c1)OCCN2c1ccc(Cl)cc1C1=CCNCC1 [Example 52, 4-(4-Chloro-2-(1,2,3,6-Tetrahydropyridin-4-Yl)Phenyl)-N-(Thiazol-2-Yl)-3,4-Dihydro-2H-Benzo[B][1,4]Oxazine-7-Sulfonamide 2,2,2-Trifluoroacetate] | 0.0045 | 0.0355 |  |  | 
11 | COc1cccc(N2CCOc3cc(S(=O)(=O)Nc4nccs4)ccc32)c1 [Example 77, 4-(3-Methoxyphenyl)-N-(Thiazol-2-Yl)-3,4-Dihydro-2H-Benzo[B][1,4]Oxazine-7-Sulfonamide 2,2,2-Trifluoroacetate] |  |  | > 10 |  | 
12 | O=S(=O)(Nc1nccs1)c1ccc2c(c1)OCCN2c1ccccc1C(F)(F)F [Example 157, N-(Thiazol-2-Yl)-4-(2-(Trifluoromethyl)Phenyl)-3,4-Dihydro-2H-Benzo[B][1,4]Oxazine-7-Sulfonamide 2,2,2-Trifluoroacetate] |  |  | > 10 |  | 
13 | Cc1ccc(N2CCOc3cc(S(=O)(=O)Nc4nccs4)ccc32)c(C)n1 [Example 132, 4-(2,6-Dimethylpyridin-3-yl)-N-(thiazol-2-yl)-3,4-dihydro-2H-benzo[b][1,4]oxazine-7-sulfonamide] | 3.56 |  | > 10 |  | 
14 | O=S(=O)(Nc1cncs1)c1ccc2c(c1)OCCN2c1ccc(C(F)(F)F)cc1C1=CCNCC1 [Example 85, 4-(2-(1,2,3,6-Tetrahydropyridin-4-Yl)-4-(Trifluoromethyl)Phenyl)-N-(Thiazol-5-Yl)-3,4-Dihydro-2H-Benzo[B][1,4]Oxazine-7-Sulfonamide 2,2,2-Trifluoroacetate] |  |  | > 10 | 41.1 | 
15 | Cc1cc(N2CCOc3cc(S(=O)(=O)Nc4nccs4)ccc32)cc(C)c1N(C)C [Example 161, 4-(4-(Dimethylamino)-3,5-Dimethylphenyl)-N-(Thiazol-2-Yl)-3,4-Dihydro-2H-Benzo[B][1,4]Oxazine-7-Sulfonamide 2,2,2-Trifluoroacetate] |  |  | 3.49 |  | 
16 | Cc1cnc(NS(=O)(=O)c2ccc3c(c2)OCCN3c2ccc(C(F)(F)F)cc2Cl)s1 [Example 12, 4-(2-Chloro-4-(Trifluoromethyl)Phenyl)-N-(5-Methylthiazol-2-Yl)-3,4-Dihydro-2H-Benzo[B][1,4]Oxazine-7-Sulfonamide] |  |  | > 10 | 24.5 | 
17 | O=S(=O)(Nc1nccs1)c1ccc2c(c1)OCCN2c1ccc(F)cc1F [Example 176, 4-(2,4-Difluorophenyl)-N-(Thiazol-2-Yl)-3,4-Dihydro-2H-Benzo[B][1,4]Oxazine-7-Sulfonamide 2,2,2-Trifluoroacetate] |  |  | > 10 |  | 
18 | O=C1COc2cc(S(=O)(=O)Nc3nncs3)ccc2N1c1cccc(Cl)c1 [Example 92, 4-(3-Chlorophenyl)-3-Oxo-N-(1,3,4-Thiadiazol-2-Yl)-3,4-Dihydro-2H-Benzo[B][1,4]Oxazine-7-Sulfonamide] |  |  | > 10 | 26.4 | 
19 | O=C1CCCc2ccc(N3CCOc4cc(S(=O)(=O)Nc5nccs5)ccc43)cc21 [Example 160, 4-(8-Oxo-5,6,7,8-Tetrahydronaphthalen-2-Yl)-N-(Thiazol-2-Yl)-3,4-Dihydro-2H-Benzo[B][1,4]Oxazine-7-Sulfonamide 2,2,2-Trifluoroacetate] |  |  | > 10 |  | 
20 | CN1CC=C(c2cc(C(F)(F)F)ccc2N2CCOc3cc(S(=O)(=O)Nc4ccncn4)ccc32)CC1 [Example 51, 4-(2-(1-Methyl-1,2,3,6-Tetrahydropyridin-4-Yl)-4-(Trifluoromethyl)Phenyl)-N-(Pyrimidin-4-Yl)-3,4-Dihydro-2H-Benzo[B][1,4]Oxazine-7-Sulfonamide] |  |  | > 10 |  | 
21 | O=S(=O)(Nc1nccs1)c1ccc2c(c1)OCCN2c1ccc(C(F)(F)F)cc1C1=CCNCC1 [Example 38, 4-(2-(1,2,3,6-Tetrahydropyridin-4-Yl)-4-(Trifluoromethyl)Phenyl)-N-(Thiazol-2-Yl)-3,4-Dihydro-2H-Benzo[B][1,4]Oxazine-7-Sulfonamide 2,2,2-Trifluoroacetate] |  |  | 0.254 |  | 
22 | CN(C)CCn1ccc(NS(=O)(=O)c2ccc3c(c2)OCCN3c2ccc(C(F)(F)F)cc2Cl)n1 [Example 14, 4-(2-Chloro-4-(Trifluoromethyl)Phenyl)-N-(1-(2-(Dimethylamino)Ethyl)-1H-Pyrazol-3-Yl)-3,4-Dihydro-2H-Benzo[B][1,4]Oxazine-7-Sulfonamide 2,2,2-Trifluoroacetate] | 9.31 |  | 8.25 |  | 
23 | CC(=O)N1CCN(c2ccc(C(F)(F)F)cc2Cl)c2ccc(S(=O)(=O)Nc3ncns3)cc21 [Example 20, 4-Acetyl-1-(2-Chloro-4-(Trifluoromethyl)Phenyl)-N-(1,2,4-Thiadiazol-5-Yl)-1,2,3,4-Tetrahydroquinoxaline-6-Sulfonamide] | 7.6 |  |  |  | 33.2
24 | COc1ccc(N2CCOc3cc(S(=O)(=O)Nc4nccs4)ccc32)c(C#N)c1 [Example 153, 4-(2-Cyano-4-Methoxyphenyl)-N-(Thiazol-2-Yl)-3,4-Dihydro-2H-Benzo[B][1,4]Oxazine-7-Sulfonamide 2,2,2-Trifluoroacetate] |  |  | > 10 |  | 
25 | Cc1c(Cl)cccc1N1CCOc2cc(S(=O)(=O)Nc3nccs3)ccc21 [Example 169, 4-(3-Chloro-2-Methylphenyl)-N-(Thiazol-2-Yl)-3,4-Dihydro-2H-Benzo[B][1,4]Oxazine-7-Sulfonamide 2,2,2-Trifluoroacetate] |  |  | > 10 |  | 
26 | N#Cc1ccc(F)cc1N1CCOc2cc(S(=O)(=O)Nc3nccs3)ccc21 [Example 188, 4-(2-Cyano-5-Fluorophenyl)-N-(Thiazol-2-Yl)-3,4-Dihydro-2H-Benzo[B][1,4]Oxazine-7-Sulfonamide] |  |  | 3.62 |  | 
